# Experimental data taken from US20100042137A1, “ACUPUNCTURE AND ACUPRESSURE THERAPIES” (priority 2008, published 2010).
# Read-outs that look alike come from different tables or passages of the source.
# Tests used:
# [1] = test system: Patients with Multiple Indications; assay: Treatment of patients with multiple indications by injection; pain level x/10; format: in vivo, human; conditions: for Pain level After: 2 cc injected
# [2] = test system: Patients with Back, Shoulder, Leg Pain; assay: Treatment of patients with back, shoulder, leg pain by injection; pain level x/10; format: in vivo, human
# Excerpt: (iv) A patient presented initially with 9/10 mechanical low back pain.
# (v) A patient with an L5 radiculopathy complained of a 6/10 low back pain which was unrelieved by trigger point injections, sacroiliac injections and epidurals.
# (vii) A patient presented with a 8/10 back pain from lumbar facet arthropathy.
# (viii) A patient presented with an 8/10 back pain with radiation down leg from lumbar radiculopathy.
# (xii) A patient presented with a 9/10 low back pain and 8/10 shoulder and neck pain.
# (ii) A patient presented with a 4/10 pain due to sacroiliac strain.
# (ii) A patient presented with a 4/10 neck pain from cervical degenerative disc disease.
# (iii) A patient presented with a 9/10 pain globally from cervical spondylotic myelopathy.
# human patients [3] = test system: human patients
# Excerpt: (i) 10/10 pain from sacroilitis.
# (ii) 5/10 pain from trochanteric bursitis.
# (iii) 7/10 pain from Morton's neuroma.
# (iv) 5/10 pain from lateral epicondylitis.
# human patients [4] = assay: Treatment with epinephrine or Restylane at specific influential points, also in combination with magnets; pain level x/10; format: in vivo
# Excerpt: (i) A patient presented with a 6/10 left ankle pain from gout.
# (ii) A patient presented with an 8/10 pain and stiffness from Parkinson's disease.
# (iii) A patient presented with a 5/10 neck pain and stiffness.
# (iv) A patient presented with a 5/10 neck and upper back pain from syringomyelia.
# (v) A patient presented with a 5.8/10 right shoulder pain from rotator cuff tendinopathy.
# (vi) A patient presented with a 2/10 shoulder pain from a rotator cuff tendinopathy.
# (vii) A patient presented with a 10/10 frontal sinus headache which was present for over 1 week.
# (viii) A patient presented with a 4/10 tension headache over the temples and neck with photophobia on which is present 2-3 times a week on average.
# (ix) A patient presented with 10/10 pain from bilateral tarsal tunnel syndrome.
# (x) A patient with chronic radicular left leg pain 6/10.
# (i) A patient presented with a 5/10 pain globally especially in the low back.
# (ii) A patient presented with a 5/10 pain in the mid back who had never had acupuncture before.
# (iii) A patient presented with a 10/10 pain in an amputee with a compound fracture of their femur.
# (i) A patient presented with common peroneal neuropathy with a pain level of 9/10.
# (ii) Patient with 9/10 back pain from sacroilitis.
# human patients [5] = test system: human patients; remark: listed apart in the source
# human patients [6] = assay: Treatments with saline; pain level x/10; format: in vivo; conditions: general observation in parenthesis
# Excerpt: (i) A patient presented with a 2/10 rotator cuff tendinopathy.
# (ii) 5/10 sacroiliac strain.
# (iv) A patient presented with a 6/10 pain globally from severe systemic lupus erthymatosis (SLE).
# (v) A patient presented with a 7/10 pain right medial knee pain from pes anserine bursitis.
# Patients with Arthritis = assay: Treatment of patients with arthritis by injection at or near acupuncture points; pain level x/10; format: in vivo, human
# Excerpt: Treatment of Patients with Arthritis
# (i) A patient presented with a 5/10 pain from severe rheumatoid arthritis.
# (ii) A patient presented with an 8/10 pain from severe rheumatoid arthritis.
# (iii) A patient presented with 8/10 pain from severe rheumatoid arthritis with diffuse joint stiffness, swelling and tenderness.
# (i) A patient presented with a pain level of 10/10 from cervical strain due to seronegative rheumatoid arthritis.
# (ii) A patient presented with a 7.5/10 pain globally from a seronegative arthritis (unspecified).
# A patient presented with a 5/10 pain from bilateral post-traumatic subtalar arthritis.
smiles,measurement,setting,value
CCN(CC)CC(=O)Nc1c(C)cccc1C [lidocaine],shoulder pain level after injection,"[1]; 6/10 bilateral shoulder pain, glenohumeral arthritis, 4 ccs into GH joints bilaterally",1/10
same,pain relief,"[1]; 6/10 shoulder pain (bilateral rotator cuff tendinopathy) and 6/10 low back pain (lumbar spinal stenosis), 2 cc bilaterally into GH joints",about 50%
same,"pain level after injection, right side of the body","[1]; 10/10 post surgical pain from tracheostomy and 6/10 coccygodynia, 2 cc s.c. bilaterally over GH joint",2/10
same,Pain level After,"[1]; Cervical spondylotic myelopathy, Before 9/10",1/10
same,Pain level After,"[1]; Chronic pelvic pain of non menstrual origin, Before 6/10",0
same,Pain level After,"[1]; Dermatomyositis, Before 6/10",2/10
same,Pain level After,"[1]; Knee pain, Before 5/10",0
same,Pain level After,"[1]; Lumbar radiculopathy, herniated disk and scatia, Before 8/10",0
same,Pain level After,"[1]; Multiple Sclerois with pain in legs, Before 7/10",0
same,Pain level After,"[1]; Peptic Ulcer with gnawing epigastric pain, Before 8/10",0
same,Pain level After,"[1]; Plantar Fasciitis, Before 6/10",0
same,Pain level After,"[1]; Reflex sympathetic dystophy, Before 6/10",0
same,other effects reported by patient,[1]; same patient,"felt more awake, had a better mood, and could breathe easier"
same,pain level after injection,"[1]; same patient as E44, 6/10 before",3/10
same,low back pain level after injection,"[1]; same patient, 6/10 low back pain, lumbar spinal stenosis, 4 ccs",2/10
same,pain after further injection,"[1]; same patient, another 2 cc over only the left GH joint",disappearance of all pain
same,pain level after injection,"[2]; 4/10 neck pain from cervical degenerative disc disease, 2 cc bilaterally s.c. over GH joints",2/10
same,pain after injection,"[2]; 4/10 pain due to sacroiliac strain, 2 cc bilaterally s.c. over GH joints",disappearance of all pain
same,pain after injection,"[2]; 5/10 back pain due to rupture of the annulus, 2 cc 1% lidocaine into GH joints bilaterally",no relief
same,pain level after injection,"[2]; 6/10 mechanical low back pain before, 2 cc bilaterally into GH joints",about 3/10
same,pain relief,"[2]; 6/10 mechanical low back pain, 2 cc bilaterally into GH joints",about 50%
same,pain level after injection,"[2]; 7/10 low back pain due to SI strain before, 2 cc into GH joints bilaterally",4/10
same,pain level after injection,"[2]; 8/10 back pain with radiation down leg, lumbar radiculopathy, 2 cc bilaterally s.c. over GH joints",1/10
same,pain level after injection,"[2]; 9/10 mechanical low back pain before, 2 cc bilaterally into GH joints, agent not given, heading: Injection of Lidocaine",4/10
same,pain after injection,"[2]; lumbar facet arthropathy, s.c. over GH joints bilaterally",resolution of pain
same,follow-up of pain relief,[2]; same patient as E28,still pain free one week later
same,other effects stated by patient,[2]; same patient as E34,"felt more awake, alert and had a sense of well-being"
same,pain after injection,"human patients [3]; 5/10 pain from lateral epicondylitis, 0.1 cc 2% lidocaine s.c. over lateral epicondyle",complete pain relief
same,pain after injection,"human patients [3]; 5/10 pain from trochanteric bursitis, 0.1 cc 2% lidocaine bilaterally s.c. over trochanteric bursae",complete pain resolution
same,symptoms after injection,"human patients [3]; 7/10 pain from Morton's neuroma, 0.1 cc 2% lidocaine s.c. on dorsal foot between metatarsal heads",complete resolution of symptoms
same,pain after injection,"human patients [3]; 10/10 pain from sacroilitis, 0.1 cc 2% lidocaine s.c. over the sacroiliac joints",immediate pain cessation and return to full mobility
same,duration of complete pain relief,human patients [3]; same patient,1 days
same,duration of complete pain resolution,human patients [3]; same patient,3 weeks
same,duration of complete resolution of symptoms,human patients [3]; same patient,2 weeks
same,pain relief still complete at time later,"human patients [3]; same patient, magnets put over the two injection sites afterwards",≥ 10 days
same,pain after injection,"human patients [4]; 9/10 back pain from sacroilitis, 0.1 cc lidocaine 2% bilaterally s.c. over sacroiliac joints (B 47, B 23)",disappearance of all back pain
same,pain after therapeutic magnets put over the sites of injection,human patients [4]; same patient,again disappeared
same,time after which the pain started to come back,human patients [4]; same patient,2 days
same,drooling after injection,"human patients [5]; excessive drooling (sialorrhea), 0.1 cc lidocaine 2% near Li 4",cessation of drooling
same,effect on sleepiness,"human patients [5]; narcolepsy, falling asleep in the office, 0.1 cc 2% lidocaine near Li 4",noticeably woke patient up
same,duration of cessation of drooling,human patients [5]; same patient,2 weeks
same,duration of effect,human patients [5]; same patient,lasted throughout the day
same,effect of unilateral injection over the GH joint,human patients [6],seems to provide analgesia on the opposite side of the body
same,pain after injection,"Patients with Arthritis; 6/10 shoulder pain (glenohumeral arthritis) and 7/10 low back pain (lumbar stenosis), 2 cc into GH joints bilaterally",complete pain relief
same,pain after injection,"Patients with Arthritis; 9/10 elbow pain (radiohumeral arthritis) and 10/10 mechanical low back pain, 2 cc into GH joints near Lu 1 bilaterally",complete relief
same,pain after injection,"Patients with Arthritis; bilateral post-traumatic subtalar arthritis, 5/10 before, 2 cc bilaterally s.c. over GH joints near Lu 1",disappearance of all pain
same,pain level after injection,"Patients with Arthritis; cervical strain due to seronegative rheumatoid arthritis, 10/10 before, 1 cc bilaterally s.c. over GH joints",4/10
same,pain after injection,"Patients with Arthritis; right glenohumeral osteoarthritis 9/10 and 8/10 low back pain (sacroiliac strain), 2 ccs bilaterally into GH joints, agent not given, heading: Injection of Lidocaine",total relief
same,duration of pain relief,Patients with Arthritis; same patient as E13,3 days
same,duration of pain relief,Patients with Arthritis; same patient as E15,1 week
same,pain level after injection,"Patients with Arthritis; same patient, 4/10 before, another 2 cc lidocaine bilaterally s.c. over GH joints",3/10
same,pain after injection,"Patients with Arthritis; seronegative arthritis (unspecified), 7.5/10 globally before, 2 cc bilaterally s.c. over GH joints",disappearance of all pain
same,pain after injection,"Patients with Arthritis; severe RA, s.c. over GH joints bilaterally",resolution of all pain
same,pain after injection,"Patients with Arthritis; severe rheumatoid arthritis, 5/10 before, 2 cc bilaterally s.c. over glenohumeral (GH) joints near Lu 1",disappearance of all pain and return of mobility
C[C@]12C=CC(=O)C=C1CC[C@H]1[C@@H]3C[C@@H](O)[C@](O)(C(=O)CO)[C@@]3(C)C[C@H](O)[C@@]12F [triamcinolone],pain after injection,"[1]; cervical stenosis 8/10 and lumbosacral strain 7/10, triamcinolone only into GH joints bilaterally",complete relief
